Here are results for 23 molecules from patent US11192889B2, “Tetrahydronaphthyridinepentanamide integrin antagonists” (The Rockefeller University, priority 2016, dated 2021).

Assay [1] addresses T1, HEK-293-αVβ3 cells (Homo sapiens, UniProt P05106+P06756). The assay can be described thus: αVβ3 Cell Adhesion to Fibrinogen Assay. The class given is cell-based. Also on record: IC50; other: dose reducing by 50% the adhesion of HEK-293-αVβ3 cells to fibrinogen; untreated cells 100% adhesion, 10 mM EDTA 0%. The settings on record: for pIC50: dose reducing by 50% the adhesion of HEK-293-αVβ3 cells to fibrinogen, separate determinations listed. The source says: (§1) HEK-293 Cells Expressing αVβ3. HEK-293 cells were transfected using lipofectamine 2000 (Invitrogen #11668030) with the cDNA for αV using the pEF1/V5-His A vector and the cDNA for β3 using the vector pcDNA3.1. Cells expressing αVβ3 were identified by their reaction with murine monoclonal antibodies (mAbs) LM609 and 7E3, and stable cell lines were established by repetitive sorting using LM609. […] HEK-293-αVβ3 cells for assays are counted in an automated cell counter (ADVIA 120) and adjusted to values appropriate for each assay.
αVβ3 Cell Adhesion to Fibrinogen Assay. Polystyrene 96-well microtiter plates (Costar, 3590) are precoated with 3.5 μg/mL of purified fibrinogen (Enzyme Research Laboratories) in 0.15 M NaCl, 0.01 M Tris/HCL, pH 7.4 for 1 hour at 37° C. The wells are then washed and incubated with HEPES-Buffered Modified Tyrode's solution (HBMT; 0.128 M NaCl, 10 mM HEPES, 12 mM NaHCO3, 0.4 mM NaH2PO4, 2.7 mM KCl, 0.35% bovine serum albumin (Fisher), 0.1% glucose, pH 7.4) for 1 hour at room temperature or overnight at 4° C. Wells are washed with HBMT containing 1 mM Mg2+ and 2 mM Ca2+ and then 50 μL of HEK-293-αVβ3 cells that have been pretreated with the compound to be tested for 20 minutes at room temperature are added to each well at a concentration of 3,000 cells/μL. After 30-32 minutes the wells are washed with HBMT containing Ca2+ and Mg2+ three times and then the adherent cells are lysed and the acid phosphatase activity that is released is measured by: 1. adding phosphatase substrate (Sigma EC 224-246-5) at 2 mg/mL in 0.1 M Na citrate, pH 5.6, 0.1% triton X-100 for 1 hour at room temperature; 2. stopping the reaction by adding 50 μL of 2 M NaOH; and 3. analyzing the samples in a spectrophotometer at 405 nm. In each assay, 10 mM EDTA is used as a positive control and untreated cells are used as a negative control. The IC50 is the dose of test compound that reduces by 50% the adhesion of the HEK-293-αVβ3 cells, taking the results with untreated cells as 100% and the results in the presence of EDTA as 0%. In some instances more than one IC50 determination was made, in which case, results of separate determinations are reported. IC50's were not determined for all compounds in the table; for some of these test compounds the inhibition at specific doses are reported. In some instances, the test compound produced a greater reduction than 10 mM EDTA, and these are shown as negative numbers.

Assay [2] addresses T1, HEK-293-αVβ3 cells. The assay can be described thus: AP5 Binding Assay. The class given is cell-based. The settings on record: for activation at 10 µM: relative to AP5 expression induced by cilengitide, read-out: AP5 expression induced at the highest concentration; for pEC50: concentration inducing 50% of the AP5 expression induced by 1 μM cilengitide.
Excerpt: as §1
AP5 Binding Assay. HEK-293-αVβ3 cells are harvested using 0.05% trypsin 0.5 mM EDTA, washed with HBMT once, and resuspended in HBMT containing 1 mM Mg2+ and 2 mM Ca2+. The cells are counted and adjusted to 0.5×10^6 cells per sample. The compound to be tested and fluorescently labeled mAb AP5 (either Alexa 488 or Alexa 674; 10 μg/mL) are added and incubated for 30 minutes at 37° C. The cells are then washed and analyzed by flow cytometry (BD FACSCalibur) at the appropriate wavelength for detecting the AP5 fluorophore. In each assay, cilengitide (1 μM) and 10 mM EDTA are included as positive controls and untreated cells are used as the negative control. The concentration of the test compound required to induce the expression of 50% of the AP5 expression induced by cilengitide is calculated and defined as the EC50. The EC50 for cilengitide was determined based on the expression induced by EDTA.

pEC50, pIC50: −log10 of the molar value. “And” between values parts separate entries of the source, which are not always exact repeats. Equal values may be shown once. Where only a bound is given, the exact number is not on record here.

T1 sequence (P05106 whole entry): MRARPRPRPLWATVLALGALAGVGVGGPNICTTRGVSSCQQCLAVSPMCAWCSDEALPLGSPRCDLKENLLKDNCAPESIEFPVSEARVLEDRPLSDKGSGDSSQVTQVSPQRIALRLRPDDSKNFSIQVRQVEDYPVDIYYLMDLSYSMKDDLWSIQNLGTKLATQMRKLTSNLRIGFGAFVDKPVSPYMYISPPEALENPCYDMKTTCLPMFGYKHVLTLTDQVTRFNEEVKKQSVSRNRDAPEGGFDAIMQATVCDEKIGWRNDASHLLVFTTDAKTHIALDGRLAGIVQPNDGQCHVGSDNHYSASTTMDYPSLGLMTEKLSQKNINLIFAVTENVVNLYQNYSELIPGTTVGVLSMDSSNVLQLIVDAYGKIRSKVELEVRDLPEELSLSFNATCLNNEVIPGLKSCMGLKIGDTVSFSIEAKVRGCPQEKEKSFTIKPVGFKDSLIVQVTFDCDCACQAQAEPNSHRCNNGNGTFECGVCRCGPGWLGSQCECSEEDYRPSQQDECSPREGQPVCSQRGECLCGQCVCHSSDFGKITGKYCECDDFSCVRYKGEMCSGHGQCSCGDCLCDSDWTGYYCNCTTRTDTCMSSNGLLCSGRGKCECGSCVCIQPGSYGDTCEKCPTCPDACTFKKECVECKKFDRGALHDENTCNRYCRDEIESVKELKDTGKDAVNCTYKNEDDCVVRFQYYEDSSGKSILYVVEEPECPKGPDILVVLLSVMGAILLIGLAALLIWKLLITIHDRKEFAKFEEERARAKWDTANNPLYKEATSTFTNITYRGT
T1 sequence (P06756 whole entry): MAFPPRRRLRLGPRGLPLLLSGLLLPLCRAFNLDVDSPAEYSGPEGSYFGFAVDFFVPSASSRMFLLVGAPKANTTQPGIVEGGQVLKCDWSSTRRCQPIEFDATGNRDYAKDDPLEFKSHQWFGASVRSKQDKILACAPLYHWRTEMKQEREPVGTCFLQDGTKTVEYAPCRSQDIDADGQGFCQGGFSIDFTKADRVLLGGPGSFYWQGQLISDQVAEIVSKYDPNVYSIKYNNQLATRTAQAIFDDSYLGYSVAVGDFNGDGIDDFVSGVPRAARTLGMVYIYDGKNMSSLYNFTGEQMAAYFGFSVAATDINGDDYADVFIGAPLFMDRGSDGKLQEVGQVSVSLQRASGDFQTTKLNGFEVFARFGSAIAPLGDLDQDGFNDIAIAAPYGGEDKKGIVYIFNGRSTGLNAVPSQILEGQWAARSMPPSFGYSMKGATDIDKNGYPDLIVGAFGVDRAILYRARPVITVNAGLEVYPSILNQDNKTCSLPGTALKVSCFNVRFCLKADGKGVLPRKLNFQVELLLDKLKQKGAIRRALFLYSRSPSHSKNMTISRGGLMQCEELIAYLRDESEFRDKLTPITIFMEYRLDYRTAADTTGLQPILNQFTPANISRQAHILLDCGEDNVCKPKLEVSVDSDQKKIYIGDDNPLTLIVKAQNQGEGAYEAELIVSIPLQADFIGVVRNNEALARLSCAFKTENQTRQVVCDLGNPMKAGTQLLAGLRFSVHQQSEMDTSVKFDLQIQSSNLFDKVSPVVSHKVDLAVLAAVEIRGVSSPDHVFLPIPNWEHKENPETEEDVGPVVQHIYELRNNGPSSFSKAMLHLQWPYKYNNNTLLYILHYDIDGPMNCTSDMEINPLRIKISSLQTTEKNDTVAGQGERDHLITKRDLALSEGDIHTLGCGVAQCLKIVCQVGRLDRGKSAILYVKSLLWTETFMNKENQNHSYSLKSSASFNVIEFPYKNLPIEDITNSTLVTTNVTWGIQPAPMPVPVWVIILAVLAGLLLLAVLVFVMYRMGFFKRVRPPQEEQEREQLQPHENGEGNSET

For orientation: pIC50 means the IC50 on a negative log10 scale, so that one unit is a factor of ten. A lower pIC50 goes with a large IC50. What is called pEC50 is the negative decadic logarithm of the EC50, by convention in mol/L. Higher therefore signals a low EC50. On HEK-293-αVβ3 cells [1], `COC(=O)NC(CCNC(=O)CCCCc1ccc2c(n1)NCCC2)C(=O)O` (stereo not shown) [Example 36] showed a pIC50 of more than 7.00. For the same molecule, on HEK-293-αVβ3 cells [2], the activation at 10 µM turned out to be 12% and the negative-log EC50 (pEC50) is less than 5.00.
`CC(C)COC(=O)NC(CCNC(=O)CCCCc1ccc2c(n1)NCCC2)C(=O)O` (stereo not shown) [Example 38, 2-(Isobutoxycarbonylamino)-4-[5-(5,6,7,8-tetrahydro-1,8-naphthyridin-2-yl)pentanoylamino]butanoic acid]: the pIC50 on HEK-293-αVβ3 cells [1] was 6.46 and 6.38. On HEK-293-αVβ3 cells [2], the activation at 10 µM came out at 20% and the pEC50 is less than 5.00.
Broadly, the inhibition is how much of the control response was suppressed. For `O=C(CCCCc1ccc2c(n1)NCCC2)NCCC(NS(=O)(=O)c1cccnc1)C(=O)O` (stereo not shown) [Example 44], the “inhibition at specific dose 0.1” value against HEK-293-αVβ3 cells [1] (dose 0.1 (table in μM), untreated cells 100% adhesion, 10 mM EDTA 0%) worked out at 40%. This molecule had a negative logarithm of the IC50 (pIC50) against HEK-293-αVβ3 cells [1] of 5.88. In addition, on HEK-293-αVβ3 cells [2], the activation at 10 µM was determined as 22% and the pEC50 is less than 5.00.
In the case of `CC1(C)[C@@H]2CC[C@]1(CS(=O)(=O)NC(CCNC(=O)CCCCc1ccc3c(n1)NCCC3)C(=O)O)C(=O)C2` (stereo partly shown) [Example 50], the pIC50 at HEK-293-αVβ3 cells [1] was more than 7.00. In addition, at HEK-293-αVβ3 cells [2], the activation at 10 µM was determined as 16% and the pEC50 is less than 5.00.
As for `COc1ccc(COC(=O)NC(CCNC(=O)CCCCc2ccc3c(n2)NCCC3)C(=O)O)cc1` (stereo not shown) [Example 60], the pIC50 at HEK-293-αVβ3 cells [1] is 6.24. Besides, on HEK-293-αVβ3 cells [2], the activation at 10 µM was found to be 10% and the pEC50 is less than 5.00.
At HEK-293-αVβ3 cells [1], `O=C(CCCCc1ccc2c(n1)NCCC2)NCCC(NC(=O)OCCc1ccccc1)C(=O)O` (stereo not shown) [Example 61] showed a pIC50 of 6.23. In addition, on HEK-293-αVβ3 cells [2], the activation at 10 µM was found to be 14% and the pEC50 was less than 5.00.
On the same counts, the results for `O=C(CCCCc1ccc2c(n1)NCCC2)NCCC(NC(=O)OCC(F)(F)C(F)(F)F)C(=O)O` (stereo not shown) [Example 62] are 6.20, 12% and less than 5.00.
In turn, `COc1ccccc1COC(=O)NC(CCNC(=O)CCCCc1ccc2c(n1)NCCC2)C(=O)O` (stereo not shown) [Example 63] gave a negative logarithm of the IC50 (pIC50) against HEK-293-αVβ3 cells [1] of 6.31. For the same molecule, at HEK-293-αVβ3 cells [2], the activation at 10 µM came out at 16% and the pEC50 was less than 5.00.
On to `O=C(CCCCc1ccc2c(n1)NCCC2)NCCC(NC(=O)OCC1CCC(F)(F)CC1)C(=O)O` (stereo not shown) [Example 64], for which the negative logarithm of the IC50 (pIC50) on HEK-293-αVβ3 cells [1] is 6.61 and 6.44. Moreover, at HEK-293-αVβ3 cells [2], the activation at 10 µM was 21% and the pEC50 is less than 5.00.
`O=C(CCCCc1ccc2c(n1)NCCC2)NCCC(NC(=O)OCc1ccccc1F)C(=O)O` (stereo not shown) [Example 65] gave a negative logarithm of the IC50 (pIC50) against HEK-293-αVβ3 cells [1] of 6.92. On HEK-293-αVβ3 cells [2], the activation at 10 µM stood at 13% and the pEC50 is less than 5.00.
The matching figures for `O=C(CCCCc1ccc2c(n1)NCCC2)NCCC(NC(=O)OCc1cccc(F)c1)C(=O)O` (stereo not shown) [Example 66]: 6.27, 12% and less than 5.00.
Consider `O=C(CCCCc1ccc2c(n1)NCCC2)NCCC(NC(=O)OCc1ccc(F)cc1)C(=O)O` (stereo not shown) [Example 67], for which the pIC50 on HEK-293-αVβ3 cells [1] is 6.49. Moreover, at HEK-293-αVβ3 cells [2], the activation at 10 µM worked out at 13% and the negative logarithm of the EC50 (pEC50) was less than 5.00.
Molecule `O=C(CCCCc1ccc2c(n1)NCCC2)NCCC(NC(=O)OCc1ccc(F)c(F)c1)C(=O)O` (stereo not shown) [Example 68] had a pIC50 at HEK-293-αVβ3 cells [1] of 6.49. Moreover, at HEK-293-αVβ3 cells [2], the activation at 10 µM came to 9% and the negative-log EC50 (pEC50) is less than 5.00.
In the case of `O=C(CCCCc1ccc2c(n1)NCCC2)NCCC(Nc1nc2ccccc2o1)C(=O)O` (stereo not shown) [Example 69, 2-(1,3-benzoxazol-2-ylamino)-4-[5-(5,6,7,8-tetrahydro-1,8-naphthyridin-2-yl)pentanoylamino]butanoic acid], on HEK-293-αVβ3 cells [1], the pIC50 is 6.68. Moreover, at HEK-293-αVβ3 cells [2], the activation at 10 µM was found to be 7% and the negative-log EC50 (pEC50) was less than 5.00.
For `O=C(CCCCc1ccc2c(n1)NCCC2)NCCC(Nc1nc2ccccc2s1)C(=O)O` (stereo not shown) [Example 70, 2-(1,3-Benzothiazol-2-ylamino)-4-[5-(5,6,7,8-tetrahydro-1,8-naphthyridin-2-yl)pentanoylamino]butanoic acid], on HEK-293-αVβ3 cells [1], the pIC50 was 6.28. For the same molecule, on HEK-293-αVβ3 cells [2], the activation at 10 µM came out at 6% and the pEC50 is less than 5.00.
The matching figures for `COc1cccc(C(=O)NC(CCNC(=O)CCCCc2ccc3c(n2)NCCC3)C(=O)O)n1` (stereo not shown) [Example 71, 2-[(6-methoxypyridine-2-carbonyl)amino]-4-[5-(5,6,7,8-tetrahydro-1,8-naphthyridin-2-yl)pentanoylamino]butanoic acid]: 5.94, 9% and less than 5.00.
Consider `O=C(CCCCc1ccc2c(n1)NCCC2)NCCC(NC(=O)c1ncc(-c2ccccc2)s1)C(=O)O` (stereo not shown) [Example 72, 2-[(5-phenylthiazole-2-carbonyl)amino]-4-[5-(5,6,7,8-tetrahydro-1,8-naphthyridin-2-yl)pentanoylamino]butanoic acid], for which the pIC50 against HEK-293-αVβ3 cells [1] was 6.74 and 7.04 and 6.73. At HEK-293-αVβ3 cells [2], the activation at 10 µM amounted to 6% and the negative logarithm of the EC50 (pEC50) is less than 5.00.
`O=C(CCCCc1ccc2c(n1)NCCC2)NCCC(NC(=O)c1nc2ccccc2n1CC1CC1)C(=O)O` (stereo not shown) [Example 73, 2-[[1-(cyclopropylmethyl)benzimidazole-2-carbonyl]amino]-4-[5-(5,6,7,8-tetrahydro-1,8-naphthyridin-2-yl)pentanoylamino]butanoic acid]: at HEK-293-αVβ3 cells [1], the pIC50 was 6.30 and 6.85. For the same molecule, on HEK-293-αVβ3 cells [2], the activation at 10 µM was determined as 2.5% and the pEC50 was less than 5.00.
`O=C(CCCCc1ccc2c(n1)NCCC2)NCCC(NC(=O)c1nc2ccccc2o1)C(=O)O` (stereo not shown) [Example 74, 2-(1,3-benzoxazole-2-carbonylamino)-4-[5-(5,6,7,8-tetrahydro-1,8-naphthyridin-2-yl)pentanoylamino]butanoic acid] had a negative logarithm of the IC50 (pIC50) against HEK-293-αVβ3 cells [1] of 6.94. In addition, on HEK-293-αVβ3 cells [2], the activation at 10 µM turned out to be 4% and the negative-log EC50 (pEC50) was less than 5.00.
Regarding `O=C(CCCCc1ccc2c(n1)NCCC2)NCCC(NC(=O)c1nc2ccccc2s1)C(=O)O` (stereo not shown) [Example 75, 2-(1,3-benzothiazole-2-carbonylamino)-4-[5-(5,6,7,8-tetrahydro-1,8-naphthyridin-2-yl)pentanoylamino]butanoic acid], on HEK-293-αVβ3 cells [1], the pIC50 was > 7.00 and 7.26 and 7.19. Also, at HEK-293-αVβ3 cells [2], the activation at 10 µM worked out at 9% and the pEC50 is less than 5.00.
`O=C(CCCCc1ccc2c(n1)NCCC2)NCCC(C(=O)O)n1cc(-c2ccccc2)nn1` (stereo not shown) [Example 76, 2-(4-phenyltriazol-1-yl)-4-[5-(5,6,7,8-tetrahydro-1,8-naphthyridin-2-yl)pentanoylamino]butanoic acid]: the pIC50 against HEK-293-αVβ3 cells [1] was 6.03. Also, at HEK-293-αVβ3 cells [2], the activation at 10 µM came to 9% and the pEC50 is less than 5.00.
As for `CC(C)Cc1cn(C(CCNC(=O)CCCCc2ccc3c(n2)NCCC3)C(=O)O)nn1` (stereo not shown) [Example 77, 2-(4-isobutyltriazol-1-yl)-4-[5-(5,6,7,8-tetrahydro-1,8-naphthyridin-2-yl)pentanoylamino]butanoic acid], on HEK-293-αVβ3 cells [1], the negative-log IC50 (pIC50) is 5.69. On HEK-293-αVβ3 cells [2], the activation at 10 µM is 8% and the pEC50 was less than 5.00.
Regarding `O=C(CCCCc1ccc2c(n1)NCCC2)NCCC(C(=O)O)n1cnc(-c2ccccc2)n1` (stereo not shown) [Example 78, 2-(3-phenyl-1,2,4-triazol-1-yl)-4-[5-(5,6,7,8-tetrahydro-1,8-naphthyridin-2-yl)pentanoylamino]butanoic acid], on HEK-293-αVβ3 cells [1], the pIC50 is 6.29. For the same molecule, at HEK-293-αVβ3 cells [2], the activation at 10 µM is 10% and the negative logarithm of the EC50 (pEC50) is less than 5.00.
